Key:
[1] = biological target: T1, E. coli β-glucuronidase (eβG) (Escherichia coli, UniProt P05804); assay: In vitro βG-activity assay (pNPG hydrolysis), eβG; assay type: biochemical; conditions: for eβG activity (%) with 50 μM compound: pH 7.3, percent of activity vs untreated control
T1 construct: histidine tag (N); made in house; host or cells: E. coli BL21 (DE3)
Description: (§1) Plasmid pRESTB containing βG gene and a histidine tag at the N-terminus was constructed as described. Recombinant βG (human and E. coli) was produced by isopropyl β-D-thiogalactopyranoside (IPTG) induction of BL21 (DE3) bacteria. βG was purified from bacterial supernatants by affinity chromatography on nickels Sepharose 6 Fast Flow (GE Healthcare). The column was washed by phosphate-buffered saline (PBS), with 50 mM imidazole, and βG was eluted by PBS with 250 mM imidazole. The purified βG was desalted on a Sephadex G-25 column equilibrated with PBS and stored at −80°C.
The candidate compounds were purchased from SPECS (The Netherlands). Each candidate was provided as a solid power and dissolved in 100% DMSO (Sigma-Aldrich) to 10 mM as stock. Candidates were screened for their inhibition specificity of eβG versus hβG, which were conducted at pH 7.3 or pH 5.4, in triplicate, respectively. 40 μL purified βG was treated with 10 μL compound solution at 37°C for 30 min and sequentially incubated with 50 μL of pNPG (Sigma-Aldrich) at 37°C for 30 min. Reactions were quenched with 5 μL of 2 N sodium hydroxide (Sigma-Aldrich). Each reaction consisted of 3.75 ng purified βG, 50 μM compound, and 5 mM pNPG in PBS containing 10% DMSO and 0.05% BSA (Sigma-Aldrich). βG-activities were measured by color development of pNP detected on a microplate reader at OD 405 nm. […] For IC50 determination, compounds at various concentrations (100 μM to 0.001 μM) were added.
Supplementary file 740815.f1.pdf: Fifty-nine candidate compounds were acquired from the initial virtually screening which was designed to target the bacterial loop of eβG and its active site. The docking energy scores of 59 candidate compounds measured by the DOCK program are -43 to -55 kcal/mol. (Table S1) The candidate compounds were purchased from SPECS (Zoetermeer, The Netherlands). Each candidate was rovided as a solid power and dissolved in 100% DMSO (Sigma-Aldrich, MO, USA) to 10 mM as stock. Candidates were screening for their inhibition specificity of eβG verse hβG, which were conducted at pH 7.3 or pH 5.4 in triplicate, respectively. 40 µL purified βG was treated with 10 µL compound solution at 37 °C for 30 min, and sequentially incubated with 50 µL of pNPG (Sigma-Aldrich) at 37 °C for 30 min. Reactions were quenched with 5 µL of 2 N sodium hydroxide (Sigma-Aldrich). Each reaction consisted of 3.75 ng purified βG, 50 µM compound, and 5 mM pNPG in PBS containing 10% DMSO and 0.05% BSA (Sigma-Aldrich). βG-activities were measured by color development of pNP detected on a microplate reader at OD 405 nm. […] Especially, the inhibiting ability against eβG activity was >95% in 7 candidates of eβG specific inhibitors (Table S1).
(§2) Fifty-nine candidate compounds were acquired from the initial virtually screening which was designed to target the bacterial loop of eβG and its active site. The docking energy scores of 59 candidate compounds measured by the DOCK program are -43 to -55 kcal/mol. (Table S1) The candidate compounds were purchased from SPECS (Zoetermeer, The Netherlands). Each candidate was provided as a solid power and dissolved in 100% DMSO (Sigma-Aldrich, MO, USA) to 10 mM as stock. Candidates were screening for their inhibition specificity of eβG verse hβG, which were conducted at pH 7.3 or pH 5.4 in triplicate, respectively. 40 μL purified βG was treated with 10 μL compound solution at 37 °C for 30 min, and sequentially incubated with 50 μL of pNPG (Sigma-Aldrich) at 37 °C for 30 min. Reactions were quenched with 5 μL of 2 N sodium hydroxide (Sigma-Aldrich). Each reaction consisted of 3.75 ng purified βG, 50 μM compound, and 5 mM pNPG in PBS containing 10% DMSO and 0.05% BSA (Sigma-Aldrich). βG-activities were measured by color development of pNP detected on a microplate reader at OD 405 nm. […]
percent of βG activity compared with the untreated control.
Especially, the inhibiting ability against eβG activity was >95% in 7 candidates of eβG specific inhibitors (Table S1).
Table S1. […]

human βG (hβG) = biological target: T2, human βG (hβG) (Homo sapiens, UniProt P08236); assay: In vitro βG-activity assay (pNPG hydrolysis), hβG; assay type: biochemical; conditions: pH 5.4, percent of activity vs untreated control
T2 construct: histidine tag (N); made in house; host or cells: E. coli BL21 (DE3)
T2 sequence (P08236 23-651): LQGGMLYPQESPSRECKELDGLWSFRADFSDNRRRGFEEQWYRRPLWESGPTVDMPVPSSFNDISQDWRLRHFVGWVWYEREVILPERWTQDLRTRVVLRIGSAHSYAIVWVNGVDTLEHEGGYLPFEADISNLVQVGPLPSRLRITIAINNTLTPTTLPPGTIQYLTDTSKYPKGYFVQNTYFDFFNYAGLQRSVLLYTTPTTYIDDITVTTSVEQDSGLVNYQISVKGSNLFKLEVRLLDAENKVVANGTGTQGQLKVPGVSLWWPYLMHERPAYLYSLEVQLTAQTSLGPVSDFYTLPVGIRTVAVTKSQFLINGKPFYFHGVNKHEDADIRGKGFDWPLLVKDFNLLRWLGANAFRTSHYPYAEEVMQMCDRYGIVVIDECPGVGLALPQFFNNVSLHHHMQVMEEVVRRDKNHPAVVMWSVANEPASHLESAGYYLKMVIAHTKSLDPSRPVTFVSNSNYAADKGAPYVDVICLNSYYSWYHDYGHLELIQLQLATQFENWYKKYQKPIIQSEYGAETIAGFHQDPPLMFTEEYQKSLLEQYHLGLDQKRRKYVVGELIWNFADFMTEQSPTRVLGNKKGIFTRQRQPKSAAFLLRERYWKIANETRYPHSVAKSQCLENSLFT
Description: as §1
The candidate compounds were purchased from SPECS (The Netherlands). Each candidate was provided as a solid power and dissolved in 100% DMSO (Sigma-Aldrich) to 10 mM as stock. Candidates were screened for their inhibition specificity of eβG versus hβG, which were conducted at pH 7.3 or pH 5.4, in triplicate, respectively. 40 μL purified βG was treated with 10 μL compound solution at 37°C for 30 min and sequentially incubated with 50 μL of pNPG (Sigma-Aldrich) at 37°C for 30 min. Reactions were quenched with 5 μL of 2 N sodium hydroxide (Sigma-Aldrich). Each reaction consisted of 3.75 ng purified βG, 50 μM compound, and 5 mM pNPG in PBS containing 10% DMSO and 0.05% BSA (Sigma-Aldrich). βG-activities were measured by color development of pNP detected on a microplate reader at OD 405 nm.
as §2, with “(Table” for “Fifty-nine candidate compounds were acquired from the initial virtually screening which was designed to target the bacterial loop of eβG and its active site. The docking energy scores of 59 candidate compounds measured by the DOCK program are -43 to -55 kcal/mol. (Table”, “rovided” for “provided”, “µL” for “μL”, “µM” for “μM”
candidate compounds were purchased from SPECS (Zoetermeer, The Netherlands). Each candidate was provided as a solid power and dissolved in 100% DMSO (Sigma-Aldrich, MO, USA) to 10 mM as stock. Candidates were screening for their inhibition specificity of eβG verse hβG, which were conducted at pH 7.3 or pH 5.4 in triplicate, respectively. 40 μL purified βG was treated with 10 μL compound solution at 37 °C for 30 min, and sequentially incubated with 50 μL of pNPG (Sigma-Aldrich) at 37 °C for 30 min. Reactions were quenched with 5 μL of 2 N sodium hydroxide (Sigma-Aldrich). Each reaction consisted of 3.75 ng purified βG, 50 μM compound, and 5 mM pNPG in PBS containing 10% DMSO and 0.05% BSA (Sigma-Aldrich). βG-activities were measured by color development of pNP detected on a microplate reader at OD 405 nm.

T1 sequence (P05804 whole entry): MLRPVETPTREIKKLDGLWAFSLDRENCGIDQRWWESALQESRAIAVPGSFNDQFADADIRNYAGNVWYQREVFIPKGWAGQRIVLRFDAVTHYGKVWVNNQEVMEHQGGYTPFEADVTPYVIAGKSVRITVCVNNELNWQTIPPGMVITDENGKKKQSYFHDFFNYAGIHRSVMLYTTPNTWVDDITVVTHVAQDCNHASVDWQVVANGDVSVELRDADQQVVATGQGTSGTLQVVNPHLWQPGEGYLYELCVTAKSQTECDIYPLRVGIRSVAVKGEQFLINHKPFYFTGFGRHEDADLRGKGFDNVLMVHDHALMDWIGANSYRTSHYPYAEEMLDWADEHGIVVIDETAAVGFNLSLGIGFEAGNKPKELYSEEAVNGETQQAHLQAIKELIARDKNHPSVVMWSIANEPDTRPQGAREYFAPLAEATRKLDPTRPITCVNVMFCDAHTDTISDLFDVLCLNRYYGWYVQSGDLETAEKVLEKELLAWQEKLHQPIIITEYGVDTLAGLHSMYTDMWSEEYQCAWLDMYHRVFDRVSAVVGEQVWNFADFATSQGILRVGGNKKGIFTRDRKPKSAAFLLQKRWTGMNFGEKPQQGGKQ

| SMILES | eβG activity (%) with 50 μM compound [1] | hβG activity (%) with 50 μM compound (human βG (hβG)) | inhibition at 10 µM ([1]; read-out: inhibition of eβG activity) | IC50 ([1]; recombinant eβG, pNPG substrate, pH 7.3) |
| --- | --- | --- | --- | --- |
| COc1cc(C(=O)NCC(=N)N)cc(OC)c1OC [Compound 0015] | 17.59% | 108.51% |  |  |
| COc1cc2ccccc2cc1C(=O)N1CCN(C)CC1 [Compound 0030] | 58.19% | 111.74% |  |  |
| Cc1cc2nc(C[n+]3cccc(C(N)=O)c3)[nH]c2cc1C [Compound 0136] | 19.16% | 108.76% |  |  |
| CN1CCN(CC(=O)Nc2c(C#N)cnn2-c2ccccc2)CC1 [Compound 0220] | 47.15% | 113.55% |  |  |
| CCOC(=O)N1CCC2(CC1)OS(=O)(=O)C=C2N [Compound 0523] | 31.77% | 109.26% |  |  |
| Cc1cccc2n(C)c(/C=N/N=C(N)N)c[n+]12 [Compound 0956] | 29.70% | 103.31% |  |  |
| O=C(O)C1CCCCC1C(=O)Nc1ccc(Oc2ccc(Cl)cc2)cc1 (stereo not drawn) [Compound 1013] | 34.76% | 126.45% |  |  |
| CCN1C(=O)c2cccc3c(S(=O)(=O)N4CCN(C)CC4)ccc1c23 [Compound 1046] | 45.94% | 106.69% |  |  |
| CCOC(=O)c1ccc(NC(=S)N2CCN(C)CC2)cc1 [Compound 1089] | 47.22% | 119.17% |  |  |
| Cc1cc(/C=C2\SC(=Nc3ccc(F)cc3)NC2=O)c(C)n1-c1ccc(S(N)(=O)=O)cc1 [Compound 1135] | 3.70% | 118.10% |  |  |
| Cc1ccccc1NC(=O)c1cccc(NC(=O)c2cc(Cl)c(Cl)cc2C(=O)O)c1 [Compound 1306] | 29.20% | 105.45% |  |  |
| Cc1ccc(Cl)cc1NC1=NS(=O)(=O)c2ccccc21 [Compound 1448] | 11.11% | 109.67% |  |  |
| CCc1sc(NC(=O)C2CCCCC2C(=O)O)nc1-c1ccccc1 (stereo not drawn) [Compound 1501] | 27.85% | 105.12% |  |  |
| NC(N)=Nc1nc2ccc(Br)cc2c(=O)[nH]1 [Compound 2020] | 13.68% | 84.13% |  |  |
| N=c1c(Nc2ccc(F)cc2)nnc(N)n1C(=O)c1ccccc1 [Compound 2074] | 12.46% | 101.07% |  |  |
| CNC(=S)Nn1cnc2c(cnn2-c2ccccc2)c1=N [Compound 2138] | 19.23% | 107.27% |  |  |
| CN1CCN(C(=O)c2cc3cc([N+](=O)[O-])ccc3oc2=O)CC1 [Compound 2715] | 53.06% | 114.38% |  |  |
| Cc1cccnc1NCn1c(=O)oc2cc([N+](=O)[O-])ccc21 [Compound 3043] | 25.14% | 103.55% |  |  |
| CN1CCN(Cc2nc3sc4c(c3c(=O)[nH]2)CCCC4)CC1 [Compound 3181] | 30.27% | 88.02% |  |  |
| COc1cc(C(=O)OC(C)CN2CCN(C)CC2)cc(OC)c1OC (stereo not drawn) [Compound 3250] | 33.62% | 96.94% |  |  |
| CC(CNS(=O)(=O)c1ccc(Cl)cc1)n1cncn1 (stereo not drawn) [Compound 3379] | 31.70% | 102.56% |  |  |
| O=C1SCCC1NS(=O)(=O)c1cc(Cl)ccc1Cl (stereo not drawn) [Compound 3927] | 18.73% | 106.86% |  |  |
| Cc1ccc2c(c1)C1CN(C)CCC1N2C(=O)c1cc(Cl)ccc1[N+](=O)[O-] (stereo not drawn) [Compound 3959] | 42.88% | 105.45% |  |  |
| Cc1ccc(S(=O)(=O)N=C2C=C(Sc3nnc[nH]3)C(=O)c3ccccc32)cc1 [Compound 4041, 4-methyl-N-(4-oxo-3-(1H-1,2,4-triazol-5ylsulfanyl)-1(4H)-naphthalenylidene)benzenesulfonamide] |  |  | > 80% | 2800 nM |
